# Experimental data from article PMC9388626, “STUB1 is an intracellular checkpoint for interferon gamma sensing” (Scientific Reports, 2022).
# What was measured:
# PC-3 cells = assay: Growth inhibition, CellTiter-Fluor (live-cell protease activity); format: cell-based, human; parameters: scale not given here; details: 10 ng ml-1 each, 6-day
# Experimental: (§1) Parental and CRISPR-edited tumour cells were seeded in a cell density of 1800 (DU145), 2000 (PC-3), or 10,000 (MCF7) per well in 96-well CellCarrier plate (PelkinElmer, #6005550) filled with 50 µl culture media + 10% FBS. After 20–24 h incubation, the cells were treated with 10 ng ml^−1 of recombinant human IFNγ (R&D Systems, 285-IF-100), 10 ng ml^−1 of recombinant human TNFα (R&D Systems, 210-TA-020/CF) or a combination of both, by adding an equal volume of the complete culture media containing the cytokines. After incubating for 6 days without media change, the CellTiter-Glo 2.0 (Promega, G9243) or CellTiter-Fluor (Promega, G6082) assay were performed according to manufacturer’ instructions. The luminescence or fluorescence (Ex: 380–400 nm, Em: 505 nm) were detected by Inifinte M1000 PRO (Tecan). For CellTiter-Fluor, triplicate wells without cells were included to determine background fluorescence and the signal average was used for background substraction.
# DU145 cells = assay: as above; format: cell-based, human; parameters: scale not given here; details: 10 ng ml-1 each, 6-day
# Experimental: as §1
# MCF7 cells = assay: as above; format: cell-based, human; parameters: scale not given here; details: 10 ng ml-1 each, 6-day
# Experimental: as §1
# [1] = test system: B16-F10 tumour in C57BL/6 J mice; assay: Syngeneic B16-F10 model, GVAX then anti-PD-1; format: in vivo, mouse; details: N 15, in mm³ (unit assumed)
# Experimental: Female C57BL/6 J mice (stock no: 000664, Jackson Laboratory) between 7–8 weeks of age weighing approximately 18–22 g were used for the study. […] One day after tumour inoculation, mice were dosed subcutaneously into the abdomen with 1.0 × 10^6 per 100 µl GM-CSF-secreting B16 (GVAX) cells that had been irradiated with 35 Gy from a ^137Cs source discharging 124 rads min^−1. GVAX treatment was repeated on day 4. […] The treatment was repeated on day 9, 12, and 15. The start of the study where tumour inoculation is conducted is designated as day 0.
# Body weights were taken twice per week.
# B16-F10 cells = assay: Flow cytometry, surface level of other cytokine receptors (IL1R1, IL6R, GP130, IFNAR1); format: cell-based, murine
# Experimental: Cells were dissociated from the wells with 0.25% trypsin (Gibco, 25200056). After rinsing with 0.5 ml PBS, each sample was stained with the LIVE/DEAD Fixable Aqua dead cell staining solution (Life Technologies, L34957) in 100 µl PBS (1:1000 dilution) for 15 min at 4 °C. After rinsing with 2 × 0.5 ml PBS, each sample was stained with the corresponding primary antibody-dye conjugates diluted in 100 µl Pharmingen stain buffer (BD Biosciences, #554657). After 1 h staining at 4 °C, the cells were rinsed with 2 × 2 ml Pharmingen stain buffer and fixed with 4.21% (w/w) formaldehyde (BD Biosciences, #554655). Cells were analyzed on LSRFortessa X-20 (BD Biosciences) with appropiate fluorescence compensation. The data were analyzed using FlowJo. Cells were gated based on FSC and SSC. Single cells were selected using FSC-A and FSC-H and viable cells were selected using LIVE/DEAD signal. Primary antibodies used were: H-2K^b/H-2D^b (FITC, Biolegend, #114606, 1:50 dilution), HLA-A,B,C (FITC, Biolegend, #311404, 1:100 dilution), mouse IFNGR1 (PE, Invitrogen, #12-1191-82, 1:50 dilution), human IFNGR1 (PE, Miltenyi, #130-125-851, 1:50 dilution), mouse IL1R1 (APC, Biolegend, #113509, 1:20 dilution), mouse IL6R (APC, Biolegend, #115812, 1:20 dilution), mouse IFNAR1 (APC, Biolegend, #127314, 1:20 dilution), and mouse GP130 (PE, Biolegend, #149404, 1:100 dilution).
substance,measurement,setting,value
IFNγ,FC in live-cell protease activity relative to parental cells,"PC-3 cells; PC-3 PTPN2 sgRNA, replicate 1",-0.90
same,FC in live-cell protease activity relative to parental cells,"PC-3 cells; PC-3 PTPN2 sgRNA, replicate 2",-0.39
same,FC in live-cell protease activity relative to parental cells,"PC-3 cells; PC-3 PTPN2 sgRNA, replicate 3",-0.44
same,FC in live-cell protease activity relative to parental cells,"PC-3 cells; PC-3 Parental, replicate 1",0.02
same,FC in live-cell protease activity relative to parental cells,"PC-3 cells; PC-3 Parental, replicate 2",-0.11
same,FC in live-cell protease activity relative to parental cells,"PC-3 cells; PC-3 Parental, replicate 3",0.09
same,FC in live-cell protease activity relative to parental cells,"PC-3 cells; PC-3 STUB1 sgRNA, replicate 1",-0.57
same,FC in live-cell protease activity relative to parental cells,"PC-3 cells; PC-3 STUB1 sgRNA, replicate 2",-0.73
same,FC in live-cell protease activity relative to parental cells,"PC-3 cells; PC-3 STUB1 sgRNA, replicate 3",-0.72
same,FC in live-cell protease activity relative to parental cells,"PC-3 cells; PC-3 control sgRNA, replicate 1",0.0759
same,FC in live-cell protease activity relative to parental cells,"PC-3 cells; PC-3 control sgRNA, replicate 2",-0.0157
same,FC in live-cell protease activity relative to parental cells,"PC-3 cells; PC-3 control sgRNA, replicate 3",-0.15
same,FC in live-cell protease activity relative to parental cells,"DU145 cells; DU145 PTPN2 sgRNA, replicate 1",-0.09
same,FC in live-cell protease activity relative to parental cells,"DU145 cells; DU145 PTPN2 sgRNA, replicate 2",-0.0242
same,FC in live-cell protease activity relative to parental cells,"DU145 cells; DU145 PTPN2 sgRNA, replicate 3",0.13
same,FC in live-cell protease activity relative to parental cells,"DU145 cells; DU145 Parental, replicate 1",-0.028
same,FC in live-cell protease activity relative to parental cells,"DU145 cells; DU145 Parental, replicate 2",-0.0441
same,FC in live-cell protease activity relative to parental cells,"DU145 cells; DU145 Parental, replicate 3",0.07
same,FC in live-cell protease activity relative to parental cells,"DU145 cells; DU145 STUB1 sgRNA, replicate 1",-0.68
same,FC in live-cell protease activity relative to parental cells,"DU145 cells; DU145 STUB1 sgRNA, replicate 2",-0.65
same,FC in live-cell protease activity relative to parental cells,"DU145 cells; DU145 STUB1 sgRNA, replicate 3",-0.52
same,FC in live-cell protease activity relative to parental cells,"DU145 cells; DU145 control sgRNA, replicate 1",0.0364
same,FC in live-cell protease activity relative to parental cells,"DU145 cells; DU145 control sgRNA, replicate 2",0.13
same,FC in live-cell protease activity relative to parental cells,"DU145 cells; DU145 control sgRNA, replicate 3",0.0663
same,FC in live-cell protease activity relative to parental cells,"MCF7 cells; MCF7 PTPN2 sgRNA, replicate 1",-0.23
same,FC in live-cell protease activity relative to parental cells,"MCF7 cells; MCF7 PTPN2 sgRNA, replicate 2",-0.32
same,FC in live-cell protease activity relative to parental cells,"MCF7 cells; MCF7 PTPN2 sgRNA, replicate 3",-0.34
same,FC in live-cell protease activity relative to parental cells,"MCF7 cells; MCF7 Parental, replicate 1",0.0179
same,FC in live-cell protease activity relative to parental cells,"MCF7 cells; MCF7 Parental, replicate 2",0.0179
same,FC in live-cell protease activity relative to parental cells,"MCF7 cells; MCF7 Parental, replicate 3",-0.0365
same,FC in live-cell protease activity relative to parental cells,"MCF7 cells; MCF7 STUB1 sgRNA, replicate 1",-1.31
same,FC in live-cell protease activity relative to parental cells,"MCF7 cells; MCF7 STUB1 sgRNA, replicate 2",-1.18
same,FC in live-cell protease activity relative to parental cells,"MCF7 cells; MCF7 STUB1 sgRNA, replicate 3",-1.16
same,FC in live-cell protease activity relative to parental cells,"MCF7 cells; MCF7 control sgRNA, replicate 1",-0.0449
same,FC in live-cell protease activity relative to parental cells,"MCF7 cells; MCF7 control sgRNA, replicate 2",0.05
same,FC in live-cell protease activity relative to parental cells,"MCF7 cells; MCF7 control sgRNA, replicate 3",0.01
gStub1 #1 (guide GCATTGCTAAGAAGAAGCGC; chemistry not given here),tumour volume (Fig. 6b),"[1]; day 5, Mean",50.28
same,tumour volume (Fig. 6b),"[1]; day 8, Mean",251.2
same,tumour volume (Fig. 6b),"[1]; day 10, Mean",457.3
same,tumour volume (Fig. 6b),"[1]; day 12, Mean",680.5
same,tumour volume (Fig. 6b),"[1]; day 14, Mean",866
same,tumour volume (Fig. 6b),"[1]; day 16, Mean",944.8
same,Surface GP130 (Fig. 2d),B16-F10 cells; replicate 1,1.09
same,Surface IFNAR1 (Fig. 2d),B16-F10 cells; replicate 1,0.74
same,Surface IL1R1 (Fig. 2d),B16-F10 cells; replicate 1,0.96
same,Surface IL6R (Fig. 2d),B16-F10 cells; replicate 1,0.93
same,Surface GP130 (Fig. 2d),B16-F10 cells; replicate 2,1.26
same,Surface IFNAR1 (Fig. 2d),B16-F10 cells; replicate 2,0.87
same,Surface IL1R1 (Fig. 2d),B16-F10 cells; replicate 2,0.97
same,Surface IL6R (Fig. 2d),B16-F10 cells; replicate 2,1.17
same,Surface GP130 (Fig. 2d),B16-F10 cells; replicate 3,1.41
same,Surface IFNAR1 (Fig. 2d),B16-F10 cells; replicate 3,1.30
same,Surface IL1R1 (Fig. 2d),B16-F10 cells; replicate 3,1.05
same,Surface IL6R (Fig. 2d),B16-F10 cells; replicate 3,1.24
same,Surface GP130 (Fig. 2d),B16-F10 cells; replicate 4,1.20
same,Surface IFNAR1 (Fig. 2d),B16-F10 cells; replicate 4,1.03
same,Surface IL1R1 (Fig. 2d),B16-F10 cells; replicate 4,1.02
same,Surface IL6R (Fig. 2d),B16-F10 cells; replicate 4,1.10
